Measurements published in patent US4343949A, “Novel 2-substituted-3,4-epoxycyclopentan-1-ones, 2-substituted-3,4-epoxycyclopentan-1-ols, and various 2-substituted-cyclopentenones” (American Cyanamid Company, priority 1979, dated 1982).

Columns and labels:
[1] = tested on: ulcerogenic properties of indomethacin; experiment: protection against the ulcerogenic properties of indomethacin (stomach ulcer score); assay type: in vivo, Rats; details: indomethacin 20 mg./kg. s.c., 2.5 or lower = active
Method: The compounds of this invention provide protection against the ulcerogenic properties of indomethacin. This assay was carried out in the following manner.
Rats were starved for 48 hours (water was given ad libitum). Indomethacin (20 mg./kg. of body weight) was administered by the subutaneous route and one-half the dose of the test compound was administered by gavage at the same time. After three hours, the second half of the test compound was administered also by Gavage. Five hours after the administration of indomethacin the animals were decapitated and the stomachs removed. The stomachs were washed with distilled water, blotted on gauze, cut along the larger curvature, and the contents rinsed with distilled water. The stomachs were spread out, pinned on a cork and visualized under magnifying glass for ulcers. The criteria for scoring of ulcers was as previously reported. [Abdel-Galil et al. Brit. J. Pharmac. Chemotherapy 33:1-14 (1968)]. […]
______________________________________
Petechial hemorrhage or pin point ulcer
Many ulcers, a few large
Many ulcers, mainly large
Control animals treated with indomethacin but not test compound consistently give scores of about 3.0-3.5. Control animals treated with neither indomethacin nor test compound give scores of about 0.5-0.8. Compounds producing a score of 2.5 or lower are considered to be active.

[2] = tested on: bronchospasms elicited by 5-hydroxytryptamine; experiment: bronchodilator activity (Konzett assay) against 5-hydroxytryptamine bronchospasm; assay type: in vivo, guinea pigs; details: Cavia porcellus; spasmogenic agent 5-hydroxytryptamine; three logarithmic cumulative intravenous doses
Method: (§1) Bronchodilator activity was determined in guinea pigs against bronchospasms elicited by intravenous injections of 5-hydroxytryptamine, histamine or acetylcholine by the Konzett procedure. (See J. Lulling, P. Lievens, F. El Sayed and J. Prignot, Arzeimittel-Porschung, 18 995 (1968).]
(§2) In the Table which follows bronchodilator activity for representative compounds of this invention against one or more of the three spasmogenic agents is expressed as an ED50 determined from the results obtained with three logarithemic cumulative intravenous doses.

[3] = tested on: bronchospasms elicited by acetylcholine; experiment: bronchodilator activity (Konzett assay) against acetylcholine bronchospasm; assay type: in vivo, guinea pigs; details: Cavia porcellus; spasmogenic agent acetylcholine (head prints choline); three logarithmic cumulative intravenous doses
Method: as §1, §2

[4] = tested on: bronchospasms elicited by histamine; experiment: bronchodilator activity (Konzett assay) against histamine bronchospasm; assay type: in vivo, guinea pigs; details: Cavia porcellus; spasmogenic agent histamine; three logarithmic cumulative intravenous doses
Method: as §1, §2

[5] = total oral dose 25 mg./kg. of body weight, control score 3.2

CCCCCC(O)/C=C/C1CCC(=O)C1CCCCSCC(=O)O (stereo not drawn) [9-oxo-3-thia-15-epi-hydroxy-13-trans-prostenoic acid]
Score, Treated (stomach ulcer score) [1, 5]: 2.3

CCCCCC(O)/C=C/C1CCC(=O)C1CCCCSCC(=O)O (stereo not drawn) [9-oxo-3-thia-15-hydroxy-13-trans-prostenoic acid]
Score, Treated (stomach ulcer score) [1, 5]: 1.8

CCCCCC(O)/C=C/C1CCC(=O)C1(C)CCCCCCC(=O)O (stereo not drawn) [9-oxo-8β-methyl-15-hydroxy-13-trans-prostenoic acid]
Score, Treated (stomach ulcer score) ([1]; total oral dose 12.5 mg./kg. of body weight, control score 3.0): 2.0

CCCCCC(O)/C=C/C1CCC(=O)C1CCCCCC(CC)C(=O)O (stereo not drawn) [9-oxo-15-hydroxy-2-ethyl-13-trans-prostenoic acid]
ED50 [2]: 0.329 µg/kg | ED50 [3]: 0.533 µg/kg | ED50 [4]: 0.145 µg/kg

CCCCCC(O)/C=C\C1CCC(=O)C1CCCCCCC(=O)O (stereo not drawn) [9-oxo-15-hydroxy-13-cis-prostenoic acid]
ED50 [2]: 0.106 µg/kg | ED50 [3]: 0.32 µg/kg
